Measured values: patent US10435375B2, “CXCR4 chemokine receptor modulators” (NORTHWESTERN UNIVERSITY, priority 2015, dated 2019)

How the values were obtained:
Assay type in all cases: cell-based
KT1 cells = assay: Cell viability assay measuring colony forming units of KT1 cells, with imatinib; conditions: combination with imatinib
Procedure: FIG. 21. Cell viability assay measuring colony forming units of KT1 cells. Cells were treated with kinase inhibitor imatinib, the indicated CXCR4 agent, or a combination, at the indicated concentrations.

[1] = test system: cells from AML patient #2; assay: Cell viability assay measuring colony forming units, cells from AML patient #2, with Ara-C; conditions: AML patient #2 cells; combination with Ara-C
Procedure: FIG. 22. Cell viability assay measuring colony forming units of from AML patient #2. Cells were treated with cytotoxic agent Ara-C, the indicated CXCR4 agent, or a combination.

CXCR4 = CXCR4 (Homo sapiens, UniProt P61073); assay: Calcium imaging ((Ca)i mobilization) assay, fura-2, C8161 melanoma cells; parameters: human melanoma cell line C8161 was initially used, which expresses numerous human CXCR4 receptors; endogenous in cells; host or cells: C8161 human melanoma cells
Text: The initial assay for examining the activity of different molecules was based on the fact that activation of CXCR4 receptors produces an increase in the intracellular free Ca^2+ concentration (Ca)i. This signal can easily be observed using a fluorescent Ca^2+ sensing dye such as fura-2. The quantitative nature of this assay makes it ideal for screening purposes. Moreover, the assay can also distinguish potential antagonists from potential agonists. The aggressive human melanoma cell line C8161 was initially used, which expresses numerous human CXCR4 receptors and produces strong (Ca)I signals when stimulated with SDF-1 (FIG. 3). In the assay, cells were usually stimulated twice with SDF-1. […] To test a drug, the compound in question was usually added prior to the second stimulation with SDF-1. At this point it was possible to observe whether the compound itself acted as an agonist by giving its own response or if it reduced the magnitude of the second response to SDF-1. […] Each of the four antagonists were then assayed at multiple concentrations to obtain a dose-response relationship and an estimated IC50. Antagonists NUCC-388, 397, 392, and 51420 had IC50 values of 0.3 μM, 3 μM, 1 μM, and 1 μM respectively.

Chain of CXCR4 (P61073 whole entry): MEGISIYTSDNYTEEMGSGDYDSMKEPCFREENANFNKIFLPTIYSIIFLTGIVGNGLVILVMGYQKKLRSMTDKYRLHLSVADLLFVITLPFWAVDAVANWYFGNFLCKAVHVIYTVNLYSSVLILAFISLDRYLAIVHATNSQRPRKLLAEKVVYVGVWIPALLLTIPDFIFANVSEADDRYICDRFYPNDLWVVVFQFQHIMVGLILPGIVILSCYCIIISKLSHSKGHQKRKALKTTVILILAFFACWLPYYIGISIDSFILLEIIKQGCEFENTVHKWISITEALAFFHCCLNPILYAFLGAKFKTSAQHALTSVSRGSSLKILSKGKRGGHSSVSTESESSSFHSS

**Q.** Which results are given for `CCCn1nc(C(=O)N(C)C)c2c1CCC(NCc1ccc(F)cc1)C2` (stereo not drawn) [NUCC-0054121, 5-((4-Fluorobenzyl)amino)—N,N-dimethyl-1-propyl-4,5,6,7-tetrahydro-1H-indazole-3-carboxamide]?
**A.** effect on cell killing by imatinib (colony forming units) (KT1 cells): enhanced the cell killing ability of imatinib; effect on cell killing by Ara-C (colony forming units) [1]: enhanced the cell killing ability of Ara-C; compound's (Ca)i response in presence of CXCR4 antagonist AMD3100 (CXCR4; C8161 cells, AMD3100 1 μM where stated): inhibited by AMD3100; own (Ca)i response (agonist effect) (CXCR4; C8161 cells, compounds 10 μM where stated, SDF-1 100 nM): robust agonist activity; Ca^2+ Assay (CXCR4; Table 1, calcium imaging behavior): Agonist; Pharmacology (CXCR4; Table 2, agonist or antagonist): Agonist
